Assay results from patent EP0197800A2, “5-Thiaprostaglandins E1 and process for producing same” (TEIJIN LIMITED, priority 1985, dated 1986).
≈ marks a conversion by molar mass, not a printed value.

Legend:
blood pressure = assay: activity on blood pressure, intravenous injection under anesthesia; type: in vivo, male wister rats; conditions: Rattus norvegicus, i.v., dosage which caused a 20% lowering of the mean blood pressure, anesthetized rats
Method: The actions of the 5-thiaprostaglandin of the invention on the blood pressure was examined by intravenous injection under anesthesia.
Urehtane (500 mg/kg) and a-chloralose (100 mg/kg) were intraperitoneally administered to male wister rats weighing about 250 g. The rats were anesthetized and fixed in place.
The test compound was dissolved in a small amount of ethanol and diluted with physiological saline to adjust the final ethanol concentration to not more than 5%. The solution was intravenously injected into the rats through a catheter inserted into the femoral vein.
The blood pressure of the rats was measured by a pressure transducer through a catheter inserted into the carotid artery of the rats.
The action of the test compound on the blood pressure was expressed as the dosage (ED20 , ug/kg) of the test compound which caused a 20% lowering of the mean blood pressure before administration of the compound.

platelet aggregation [1] = assay: in vitro inhibitory activity of platelet aggregation (ADP-induced, platelet-rich plasma); type: cell-based, Japanese domestic white male rabbits; conditions: Oryctolagus cuniculus; rabbit PRP, 10 µM ADP; minimum concentration which inhibited more than 50% of platelet aggregation; read-out: Inhibition of Platelet in vitro IC50
Method: The in vitro platelet aggregation imhibiting activity of the compound of the invention was examined by using rabbits. Blood was withdrawn from the ear vein of Japanese domestic white male rabbits weighing 2.5 to 3.5 kg. A mixture of a 3.8% trisodium citrate solution and the blood in a ratio of 1:9 was centrifuged at a speed of 1000 rpm for 10 minutes. The upper layer was separated as platelet-rich plasma (PRP). The lower layer was further centrifuged at a speed of 2800 rpm for 10 minutes. The upper layer was separated as platelet- poor plasma (PPP). The number of plate lets was adjusted to 6 x 105/µℓ. to 7 x 105/µℓ. by diluting the PRP with PPP. 25 microliters of the test compound prepared as shown below was added with an amount of 25 to 250 microliters of PRP after the adjustment, and the mixture was pre-incubated at 37°C for 2 minutes, and then 10 µM (final) of ADP was added. Changes in transmission were recorded by using an aggregometer.
The drug was dissolved in ethanol to a concentration of 10 mg/ml, and seccussively diluted with phosphate buffer (pH 7.4) prior to use.
The rate of inhibition of platelet aggregation was determined from the following equation. [formula] • T0: the transmittance of the system containing the phosphate buffer, • T : the transmittance of the system to which the test drug was added. […]

platelet aggregation [2] = assay: extra vivo inhibitory activity of platelet aggregation after oral administration; type: in vivo, Hartley-strain guinea pigs; conditions: guinea pigs, oral 0.3-3 mg/kg, blood drawn 1 hour after administration, N.E.: no-effect
Method: The extra vivo platelet aggregation inhibitory activity of the 5-thiaprostaglandin E1 derivatives of the invention were measured by using guinea pigs. A test drug prepared as a 10% ethanol solution of the compound of the invention in ethanol diluted with 10% ethanol-0.5% Tween 80 in saline were orally administered in a dose of 0.3-3 mg/kg, and as a control 10% ethanol-0.5% Tween 80 in saline was orally administered in a dose of 1 ml/kg to Hartley-strain guinea pigs having a body weight of 350 to 450 g which had been fasted for 17 hours. 1 hour after the administration of the compound, blood was drawn off by carbiac puncture using trisodium citrate so that the ratio of the blood to 3.8% trisodium citrate was 9:1. The blood was centrifuged at a speed of 700 rpm for 10 minutes. The upper layer was separated as platelet-rich plasma (PRP). The lower layer was further centrifuged at a speed of 2800 rpm for 10 minutes. The upper layer was separated as platelet poor plasma (PPP). A 250 microliter amount of the - resulting PRP was taken into an aggregometer cuvette and incubated at 37°C for 2 minutes. […] The aggregation curve was recorded for 5 minutes. The maximum degree of aggregation of platelets within this time period was read, and the rate of inhibition of platelet aggregation was calculated from the following equation. […]

indomethacin ulcer = assay: inhibitory activity on indomethacin ulcer; type: in vivo, Wister male rats; conditions: rat indomethacin ulcer, oral administration of 40 µg/kg
Method: The inhibiting effect on ulcer formation induced by indomethacin was examined by using Wister male rats (7 weeks old, body weight 220 g) which were fasted for 24 hours, except for water, and then subjected to experiment.
The sample compound to be tested was dissolved in a phosphoric acid buffer (pH 7.4) containing 0.9% NaCl and the solution was orally administered to the rats. 30 minutes after the administration, indomethacin was orally administered to the rats at a dose of 20 mg/kg. 5 hours after the administratin of the indomethacin, the rats were killed and the ulcer formation in the stomach was examined by determining the length of the ulcer formation portion under a stereomicroscope. From this measurement, the inhibition of ulcer formation by the sampel compound was calculated to determine the IC50 values.

ethanol ulcer = assay: inhibitory activity on ethanol ulcer; type: in vivo, SD-strain rats; conditions: rat ethanol ulcer, oral administration of 4 ug/kg
Method: An ethanol ulcer test was carried out by the following procedure. SD-strain rats (body weight 200 to 220 g; 7 week old) were fasted for 24 hours, and a solution of the test compound in physiological saline buffered with phosphate buffer at pH 7.5 was orally administered. Thirty minutes after the administration, 75% ethanol was orally administered in a dose of 1 ml/kg. One hour later, the abdomen was incised to isolate the stomach. […] The total of these lengths was […] ulcer index. From this measurement, the inhibition of ulcer formatin by the test compound was calculated, to determine the IC50 value.

CCCC[C@](C)(O)C/C=C/[C@H]1[C@H](O)CC(=O)[C@@H]1CCSCCCC(=O)OC [Compound of example 6, (16S)-15-deoxy-16-hydroxy-16-methyl-5-thiaprostaglandin E1 methyl ester] was tested, and the ED20 (blood pressure) was 2.1 µg/kg, the IC50 (platelet aggregation [1]) was 60 µg/mL (≈ 150 µM) and the “Inhibition of Platelet extra vivo ADP” value (platelet aggregation [2]; ADP-induced aggregation) was “N.E”. The “Inhibition of Platelet extra vivo collagen” value (platelet aggregation [2]; collagen-induced aggregation) was “N.E”, the “preventive rate of ulcer generation” value (indomethacin ulcer) was “about 50%” and the “prevention rate of ulcer generation” value (ethanol ulcer) was “about 50%”.
